Source: ChEMBL document CHEMBL3817801, “Synthesis and steroid sulfatase inhibitory activities of N-phosphorylated 3-(4-aminophenyl)-coumarin-7-O-sulfamates” (Medchemcomm, 2016)

molecular target: T1, Steryl-sulfatase (Homo sapiens, UniProt P08842); experiment: Inhibition of human placental steroid sulfatase using p-nitrophenyl sulfate as substrate after 15 mins by microplate reader method
T1 sequence (P08842 whole entry): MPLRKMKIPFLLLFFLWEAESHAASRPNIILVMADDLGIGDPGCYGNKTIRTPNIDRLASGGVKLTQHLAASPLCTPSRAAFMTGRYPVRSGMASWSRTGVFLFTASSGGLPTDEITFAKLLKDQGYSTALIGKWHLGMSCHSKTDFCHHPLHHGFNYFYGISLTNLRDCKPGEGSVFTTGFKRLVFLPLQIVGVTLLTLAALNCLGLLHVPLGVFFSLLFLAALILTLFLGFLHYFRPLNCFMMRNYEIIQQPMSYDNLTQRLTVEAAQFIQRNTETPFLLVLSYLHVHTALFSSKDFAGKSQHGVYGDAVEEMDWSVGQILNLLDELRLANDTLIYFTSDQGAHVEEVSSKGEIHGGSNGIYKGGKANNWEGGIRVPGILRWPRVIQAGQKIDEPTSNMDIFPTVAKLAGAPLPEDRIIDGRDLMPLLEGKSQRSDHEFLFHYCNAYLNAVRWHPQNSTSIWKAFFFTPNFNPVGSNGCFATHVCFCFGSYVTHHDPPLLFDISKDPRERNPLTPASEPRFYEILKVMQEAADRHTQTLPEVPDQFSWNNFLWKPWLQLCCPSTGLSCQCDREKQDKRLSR

| SMILES | IC50 [nM] |
| --- | --- |
| CC(C)OP(=O)(Nc1ccc(-c2cc3ccc(OS(N)(=O)=O)cc3oc2=O)cc1)OC(C)C | 470 |
| Cc1cc(=O)oc2cc(OS(N)(=O)=O)ccc12 | 1030 |
| NS(=O)(=O)Oc1ccc2cc(-c3ccc(NP4(=O)OCCCO4)cc3)c(=O)oc2c1 | 700 |
| NS(=O)(=O)Oc1ccc2ccc(=O)oc2c1 | 1380 |
| COP(=O)(Nc1ccc(-c2cc3ccc(OS(N)(=O)=O)cc3oc2=O)cc1)OC | 780 |
| CCOP(=O)(Nc1ccc(-c2cc3ccc(OS(N)(=O)=O)cc3oc2=O)cc1)OCC | 510 |
| CC1(C)COP(=O)(Nc2ccc(-c3cc4ccc(OS(N)(=O)=O)cc4oc3=O)cc2)OC1 | 450 |

Molecules with a lower IC50, results first:

| IC50 [nM] | SMILES |
| --- | --- |
| 310 | CCCCOP(=O)(Nc1ccc(-c2cc3ccc(OS(N)(=O)=O)cc3oc2=O)cc1)OCCCC |
| 190 | NS(=O)(=O)Oc1ccc2cc(-c3ccc(NP(=O)(Oc4ccccc4)Oc4ccccc4)cc3)c(=O)oc2c1 |
| 240 | NS(=O)(=O)Oc1ccc2cc(-c3ccc(NP(=O)(OCc4ccccc4)OCc4ccccc4)cc3)c(=O)oc2c1 |
